# Source: patent US20080274090A1, “REVERSAL OF INSULIN-DEPENDENT DIABETES BY ISLET-PRODUCING STEM CELLS, ISLET PROGENITOR CELLS AND ISLET-LIKE STRUCTURES” (UNIVERSITY OF FLORIDA RESEARCH FOUNDATION, INC., priority 2000, published 2008)
# No end group written: not given here.
# Experiments:
# [1] = tested on: IdIs derived from NOD/Uf pancreatic IPSCs; assay: Insulin content and secretion of cultured IdIs upon glucose stimulation (insulin ELISA); type: cell-based, mouse; details: for insulin release from IdIs by secretagogues: 10 mM arginine or 1 nM GLP-1 with 17.5 mM glucose, final 3 hours, lesser degree than nicotinamide
# Method: To determine insulin secretion, 300 IdIs derived from NOD/Uf pancreatic IPSCs were cultured in vitro for 5 days in EHAA medium containing either 0.5% NMS or prediabetic NOD mouse serum with or without nicotinamide (1-10 mM). At the end of the culture period, cells were washed twice in Krebs ringer buffer (KRB) and stimulated with 17.5 mM glucose in KRB for 3 hours.
# Three hundred IdIs (from culture flasks containing EHAA-0.5% NMS medium) were seeded in 24 well plates in 2 ml of EHAA medium containing 0.5% of NMS with or without nicotinamide (1-10 mM) for 5 days at 37° C. (5% CO2). For secretagogues, IdIs were cultured in EHAA-0.5% NMS medium for 5 days. Three hours prior to the end of the incubation period, medium was removed and IdIs gently washed twice with KRB. To stimulate insulin secretion, 17.5 mM glucose was added to wells in 1 ml of KRB, and incubated at 37° C. for 3 hrs. Following incubation, culture supernatants were stored at −70° C. until use. The IdIs in each well were then subjected to 1 ml of ice-cold acid-ethanol extraction overnight at 4° C., and cell-free extracts were neutralized with Tris base (400 mM final concentration) prior to storing at −70° C. until use. To test the effect of secretagogues, 10 mM arginine and 1 nM GLP-1 (Sigma Chemicals, St Louis, Mo.) were used for the final 3 hours incubation in KRB. The insulin in the supernatants and in the extract were determined using an insulin ELISA kit (Crystal Chemical Inc., Chicago, Ill.), with rat insulin standard for quantitation (supplied in the kit). Comparisons between groups were done using the one tailed t-test.
# IPSC line #7 = assay: Expression of development/differentiation factors in IPSC line #7 under nicotinamide; type: cell-based, mouse
# Method: Nicotinamide has also been determined to enhance expression of various factors involved in the development/differentiation of the pancreas. […] A differentially regulated expression of Ins I and II was also apparent: Ins I was expressed at lower concentrations of nicotinamide (1-20 mM), while Ins II was expressed at 20-40 mM nicotinamide. Glucagon expression was visible only at a low dose of nicotinamide (<10 mM), while amylase expression was maintained at all doses (0-40 mM) (data not shown).
# human cell line (#H3) = assay: Differentiation of human IPSCs with nicotinamide and ECM (immunohistochemical staining); type: cell-based; details: upon treatment with nicotinamide
# Text: Several lines were derived from human pancreatic ductal preparation provided by DRI (Miami, Fla.). […] Only about 2% of the cells express insulin (FIG. 16M). None of the cells express tyrosine hydroxylase (FIG. 16G).
Molecule,insulin release from IdIs by secretagogues [1],"differentiation of IPCs to IdIs ([1]; in combination with epidermal growth factor or hepatocyte growth factor, data not shown)","insulin content of IdIs ([1]; nicotinamide 1-10 mM for 5 days, then 17.5 mM glucose 3 hours, versus glucose alone)","insulin secretion of IdIs ([1]; nicotinamide 1-10 mM for 5 days, then 17.5 mM glucose 3 hours, versus glucose alone, P<0.05)",nicotinamide concentration at which Ins I was expressed (IPSC line #7; IPSC line #7) [mM],nicotinamide concentration at which Ins II was expressed (IPSC line #7; IPSC line #7) [mM],"nicotinamide dose at which glucagon expression was visible (IPSC line #7; IPSC line #7, data not shown) [mM]","nicotinamide doses at which amylase expression was maintained (IPSC line #7; IPSC line #7, data not shown) [mM]","expression of development/differentiation factors (IPSC line #7; at different doses, data not shown)",cells expressing insulin (human cell line (#H3)),cells expressing tyrosine hydroxylase (human cell line (#H3)),expression of pancreatic products (human cell line (#H3))
N=C(N)NCCC[C@H](N)C(=O)O [arginine],induced insulin release,–,–,–,–,–,–,–,–,–,–,–
NC(=O)c1cccnc1 [nicotinamide],–,induced the differentiation of IPCs to IdIs,increased insulin content,significantly increased levels of insulin,1 to 20,20 to 40,< 10,0 to 40,"enhancement of Isl-1, beta2/neuroD, IPF-1, Nkx 2.2 and 6.1",about 2%,None,"express glucagon (FIG. 16K), amylase (FIG. 16I), cytokeratin 7 (FIG. 16C), and cytokeratin 19 (FIG. 16E)"
"glucagon like peptide-1 (HAEGTFTSDVSSYLEGQAAKEFIAWLVKGR; ends and bridges not checked; UniProt P01275 98-127, looked up) [GLP-1, secretagogue stimulating β cells through elevation of cAMP and the protein kinase A pathway]",induced insulin release,–,–,–,–,–,–,–,–,–,–,–
